In brackets after ≈: the same amount, converted by molar mass. Activity calls are given as the source filed them. The calls are words filed in the database; no cut-off is given here.

Data on seven compounds can be found in ChEMBL document CHEMBL4364263, “Synthesis and biological evaluation of 2,4,5-trisubstituted thiazoles as antituberculosis agents effective against drug-resistant tuberculosis” (Eur J Med Chem, 2019).

In series [1] the test system is Escherichia coli. In words: Antibacterial activity against Escherichia coli ATCC 25922 assessed as growth inhibition incubated for 18 to 24 hrs by broth microdilution based antibiotic susceptibility testing method. Type of series: functional.
In series [2] the test system is Mycobacterium tuberculosis. The series can be described thus: Antitubercular activity against replicating Mycobacterium tuberculosis H37Rv assessed as growth inhibition measured after 7 days incubation by microplate alamar blue assay. Type of series: functional. To be noted: 168 h.
The test system of series [3] is Mycobacterium tuberculosis. In words: Antimycobacterial activity against dormant stage of Mycobacterium tuberculosis H37Ra ATCC 25177 assessed as growth inhibition at 10 uM incubated for 12 days by XRMA method relative to control. Type of series: functional. To be noted: H37Ra ATCC 25177, 288 h.
Series [4] relates to CHO-K1. In words: Cytotoxicity against CHOK1 cells assessed as reduction in cell viability incubated for 24 hrs by MTT assay. Type of series: cell-based. Particulars: Cricetulus griseus, CHO-K1, 24 h.
For series [5], the system named is MCF7. The series can be described thus: Cytotoxicity against human MCF7 cells assessed as cell viability at 10 uM incubated for 24 hrs by MTT assay. Type of series: cell-based. To be noted: mcf7, 24 h.
The test system of series [6] is B16-F10. The series can be described thus: Cytotoxicity against mouse B16F10 cells assessed as cell viability at 10 uM incubated for 24 hrs by MTT assay. The series is classed as cell-based. Particulars: b16-f10, 24 h.
In series [7] the test system is Klebsiella pneumoniae. In words: Antibacterial activity against Klebsiella pneumoniae BAA-1705 assessed as growth inhibition incubated for 18 to 24 hrs by broth microdilution based antibiotic susceptibility testing method. To be noted: ATCC BAA-1705. Type of series: functional.
Series [8] concerns Pseudomonas aeruginosa. The series can be described thus: Antibacterial activity against Pseudomonas aeruginosa ATCC 27853 assessed as growth inhibition incubated for 18 to 24 hrs by broth microdilution based antibiotic susceptibility testing method. Type of series: functional.
In series [9] the test system is Staphylococcus aureus. In words: Antibacterial activity against Staphylococcus aureus ATCC 29213 assessed as growth inhibition incubated for 18 to 24 hrs by broth microdilution based antibiotic susceptibility testing method. Type of series: functional.
The nature of series [10]: Selectivity index, ratio of IC50 for CHOK1 cells to MIC for Mycobacterium tuberculosis H37Rv. Particulars: hamster, CHO-K1 cells; read-out: Selectivity Index. The series is classed as toxicity.
Series [11] concerns Mycolicibacterium fortuitum. The series can be described thus: Antimycobacterial activity against Mycobacterium fortuitum assessed as growth inhibition. Type of series: functional, organism-based.
Series [12] concerns Mycobacteroides chelonae. The series can be described thus: Antimycobacterial activity against Mycobacterium chelonae assessed as growth inhibition. The series is classed as functional, organism-based.
Series [13] concerns Mycobacteroides abscessus. In words: Antimycobacterial activity against Mycobacterium abscessus assessed as growth inhibition. Type of series: functional, organism-based.
For series [14], the system named is Acinetobacter baumannii. The series can be described thus: Antibacterial activity against Acinetobacter baumannii BAA-1605 assessed as growth inhibition incubated for 18 to 24 hrs by broth microdilution based antibiotic susceptibility testing method. The series is classed as functional.
Series [15] concerns Mycobacterium tuberculosis. In words: Antitubercular activity against Mycobacterium tuberculosis H37Rv ATCC 27294 assessed as bacterial growth inhibition incubated for 5 days by standard microdilution method. The series is classed as functional. Particulars: H37Rv ATCC 27294, 120 h.
Series [16] deals with CHO-K1. In words: Cytotoxicity against CHOK1 cells assessed as cell viability at 8 ug/ml incubated for 24 hrs by MTT assay. The series is classed as cell-based, Cricetulus griseus. Particulars: chinese hamster, cho-k1, 24 h.

As for `CCOC(=O)c1nc(C(C)C)sc1-c1cnc2ccccc2c1`, the MIC in series [1] was over 50 µM; in series [2] it was 4 µg/mL (≈ 12.3 µM); in [7] it was over 50 µM; in series [8], over 50 µM; in series [9], over 50 µM. In [3], the inhibition at 10 µM came to 80.5%. For the same compound, the IC50 in [4] was over 50 µg/mL. Also, the Activity entry in series [5] and in series [6] was “Non-Toxic” throughout. Besides, the selectivity ratio in series [10] was over 12.5. Further, the inhibition result in [11], in series [12] and in series [13] was “inactive” each time.

Take `C[C@H]1COc2c(N3CCN(C)CC3)c(F)cc3c(=O)c(C(=O)O)cn1c23` [LEVOFLOXACIN]: the MIC was under 30 µM in [1] and 8 µM (≈ 2.89 µg/mL) in series [14].

`COc1ncnc(Cn2cc(C(=O)NCCO)c3ncc(C)cc32)c1C` [TBA-7371]: the MIC in series [15] was in the range of 0.78 to 3.12 µM (≈ 0.277 to 1.11 µg/mL).

Turning to `CCOC(=O)c1nc(C2CCCCC2)sc1-c1cccc(C#N)c1`, the MIC was over 50 µM in series [1]; 4.2 µg/mL (≈ 12.3 µM) in series [2]; over 50 µM in series [7]; over 50 µM in [8]; 50 µM (≈ 17 µg/mL) in [9]. In series [3], the inhibition at 10 µM is 90.3%. Moreover, the IC50 in series [4] is over 50 µg/mL. In addition, the Activity result in series [5] and in series [6] was “Non-Toxic” in each case. Besides, the selectivity ratio in [10] was over 11.9. Also, the inhibition result in series [11], in series [12] and in series [13] was “inactive” each time.

Consider `CCOC(=O)c1nc(C(C)C)sc1-c1ccc(C#N)cc1`, for which the MIC in [1] is over 50 µM; in series [2], 1.8 µg/mL (≈ 5.99 µM); in series [7], over 50 µM; in [8], over 50 µM; in [9], over 50 µM. Further, in series [3], the inhibition at 10 µM came to 82.7%. The IC50 in [4] was found to be 40.5 µg/mL (≈ 135 µM). The Activity entry in [5] and in series [6] was “Non-Toxic” each time. The selectivity ratio in series [10] is 22.4. Moreover, the inhibition entry in series [11], in series [12] and in [13] was “inactive” each time.

`CCOC(=O)c1nc(C2CCCCC2)sc1-c1ccc(C#N)cc1`: the MIC in series [1] is over 50 µM; in series [2], 2.1 µg/mL (≈ 6.17 µM); in series [7], over 50 µM; in [8], over 50 µM; in [9] it was 50 µM (≈ 17 µg/mL). Also, the Activity result in series [16], in series [5] and in [6] was “Non-Toxic” each time. The inhibition at 10 µM in series [3] stood at 90.5%. For the same compound, the IC50 in series [4] came to 75.2 µg/mL (≈ 221 µM). Also, the selectivity ratio in series [10] was 35.8. Besides, the inhibition result in series [11], in series [12] and in series [13] was “inactive” in each case.

On to `CCOC(=O)c1nc(C2CCCCC2)sc1-c1ccccc1C#N`, for which the MIC in series [1] is over 50 µM; in series [2], 4.2 µg/mL (≈ 12.3 µM); in series [7] it was over 50 µM; in series [8] it was over 50 µM; in series [9] it was 50 µM (≈ 17 µg/mL). For the same compound, in [3], the inhibition at 10 µM was determined as 91.7%. Moreover, the IC50 in series [4] is over 50 µg/mL. In addition, the Activity result in series [5] and in series [6] was “Non-Toxic” each time. Further, in [10], the selectivity ratio is over 11.9. Besides, the inhibition entry in series [11], in series [12] and in series [13] was “inactive” each time.
